“Also recorded” adds a separate entry of the source.
Columns and labels:
[1] = Rotarod test (neurological deficit) in kindled rats; assay type: in vivo, rat
Experimental: (§1) Tests included open field observations, rotarod test and body temperature. Tests were always performed in the same manner in control and drug experiments at two different times, just before application of drug or vehicle and 13 minutes after application.
The rotarod test was carried out with a rod of 6 cm diameter and rotation speed of 8 r.p.m. Neurological deficit was indicated by inability of the animals to maintain their equilibrium for at least 1 min on the rotating rod. Rats had to be trained prior to drug experiments to maintain their balance on the rod. After drug or vehicle treatment, rats which were not able to maintain their equilibrium on the rod for 1 minute were put again on the rod twice.

PTZ induced seizures = conditions: literature / earlier application; cited from earlier work
Rectal body temperature = assay type: in vivo, rat; conditions: for BODY TEMP., day of exper., 13′ post appl.: mean (X)
Experimental: Female Wistar rats (Harlan-Winkelmann, Borchen, Germany) were obtained at an age of 11-12 weeks (body weight 180-200 g). Female rats were employed because they are known to eliminate drugs less rapidly than do males, which was thought to be an advantage for drug potency studies. Rats were kept separately in plastic cages at controlled temperature (23° C.) and humidity (about 50 %) with a 12-h light cycle beginning at 7 a.m. They received standard diet (Altromin; Lage, F.R.G.), tap water and libitum. All drug injections were done in the afternoon at an ambient temperature of 23-25° C. The regular protocol started by taking the rats out of their individual cage, weighing them and joining them together on a table with six open plastic cages for better behavioral observations. Therefore animals were able to move from one cage to another and either to have social contact or to avoid it. After a short adaptation time of approximately 15 minutes, rectal body temperatures were recorded followed by drug or vehicle application.
as §1
In addition to these quantitative estimations of neurological deficit, behavioral alterations observed after administration of 2-propyl-4-hexynoic acid and valproate noted in the cage and by placing the animals in an open field of 90-100 cm diameter. Muscle tone was estimated by palpation of the abdomen. The extent of deficits in behavior after administration of the compounds was determined by a rating system (Loscher et al. 1987). In short, animals were taken out of the cage, placed in an open field, observed for about 1 minute and rated separately for ataxia, abducted hindlimbs, reduced righting, flat body posture, circling, Straub tail, piloerection, hypolocomotion and hyperlocomotion (abdominal muscle tone was evaluated by palpation at the end of the period of observation). All other parameters except ataxia were scored from 0 to 3: 0-absent; 1-equivocal; 2-present; 3- intense. For ataxia (06): 1 -slight ataxia in hind-legs (tottering of the hind quarters); 2-more pronounced ataxia with dragging of hind legs; 3-further increase of ataxia and more pronounced dragging of hind legs; 4-marked ataxia, animals lose balance during forward locomotion; 5- very marked ataxia with frequent loss of balance during forward locomotion; 6-permanent loss of righting reflexes, but animal still attempts to move forward. Rectal body temperature was measured by an electronic thermometer. Body weight of the animals was recorded once daily before drug injection. Significance of differences in behavior between pre-drug and post-drug data determined in the same group of animals was calculated by the Wilcoxon signed rank test for paired replicates and for body temperature by Student's paired t-test (SigmaStat for Windows, version 1.0). Differences in body temperature were always compared only within the experimental day with the pre-drug time as control to one post-drug time.

[2] = 50 mg/kg i.p., 13′ after application
[3] = 75 mg/kg i.p., 13′ after application
[4] = doses 50, 75, 100, 200 mg/kg i.p.

alterations in body-temperature, in words (Rectal body temperature; 100 mg/kg i.p.) | BODY TEMP., day of exper., 13′ post appl. (Rectal body temperature; 100 mg/kg i.p.) [°C] | BODY TEMP., day of exper., 13′ post appl. (Rectal body temperature; 200 mg/kg i.p.) [°C] | BODY TEMP., day of exper., 13′ post appl. (Rectal body temperature; 200 mg/kg i.p., listed as valproate) [°C] | Compound | rotarod-test, day of exper. [1, 2] [%] | rotarod-test, day of exper. [1, 3] [%] | rotarod-test, day of exper. ([1]; 200 mg/kg, 13′, all 8 animals +) [%] | rotarod-test, in words [1, 4] | antiepileptic effect in PTZ test, in words (PTZ induced seizures) | BODY TEMP., day of exper., 13′ post appl. (Rectal body temperature; 50 mg/kg i.p.) [°C] | BODY TEMP., day of exper., 13′ post appl. (Rectal body temperature; 75 mg/kg i.p.) [°C] | BODY TEMP. (° C.) day of exper. 13′ post appl. (Rectal body temperature; 200 mg/kg, 13′ post appl., mean of 8 rats, ante appl. 38.68) [°C] | body-temperatures, in words (Rectal body temperature; [4]) | rotarod test, in words ([1]; 100 mg/kg i.p.) | rotarod-test, day of exper. ([1]; 100 mg/kg i.p., 13′ after application) [%] | rotarod test, in words ([1]; 200 mg/kg i.p.) | rotarod-test, day of exper. ([1]; 200 mg/kg i.p., 13′ after application) [%]
 |  |  |  | CC#CCC(CCC)C(=O)O (stereo not drawn) [2-propyl-4-hexynoic acid, 2-n-propyl-4-hexynoic acid] | 0 | 0 | 0 | performed successfully by all individuals | effective antiepileptic with a longer duration of activity and greatly reduced sedative and teratogenic effects compared to valproic acid; also recorded: improved antiepileptic compared to valproic acid | 38.48 | 38.49 | 37.94 | maintained within the physiological range |  |  |  | 
No alterations | 38.97 | 39.18 | 39.2 | CCCC(CCC)C(=O)O [Valproate, valproic acid] | 0 | 0 |  |  |  | 38.82 | 38.55 |  |  | performed without failure | 0 | performed without failure | 0

Reference: patent US6458840B2, “Use of valproic acid analog for the treatment and prevention of migraine and affective illness” (American Biogenetic Sciences, Inc., priority 1998, dated 2002)
